In ChEMBL document CHEMBL4825686, “HTS-based discovery and optimization of novel positive allosteric modulators of the α7 nicotinic acetylcholine receptor” (Eur J Med Chem, 2021):
The source made the active and inactive calls. No cut-off for these calls is given here.

What was measured:
[1] = Ratio of drug level in NMRI mouse brain to plasma at 10 mg/kg, ip measured after 1 hr by HPLC-MS/MS analysis; type: ADME, organism-based; settings: read-out: BPR
[2] = biological target: T1, GABA-A receptor; alpha-5/beta-3/gamma-2 (Homo sapiens) (UniProt P18507+P28472+P31644); experiment: Inhibition of human alpha5beta3gamma2 GABAA receptor expressed in HEK293 cells assessed as inhibition of GABA induced channel current response at 1 to 10 uM measured after 7 to 10 mins at -80 mV holding potential by whole-cell patch clamp assay; type: cell-based; settings: dose 1-10 µM, time 7-10 min
[3] = Mutagenicity in Salmonella typhimurium TA1535 in absence of rat liver S9 fraction by AMES test; type: toxicity; settings: salmonella enterica subsp. enterica serovar typhimurium
[4] = Ratio of drug level in NMRI mouse brain to plasma at 0.1 mg/kg, ip measured after 1 hr by HPLC-MS/MS analysis; type: ADME, organism-based; settings: read-out: BPR
[5] = biological target: Glutamate NMDA receptor (Rattus norvegicus) (UniProt P35439+Q00959+Q00960+Q00961+Q62645+Q8VHN2+Q9R1M7); experiment: Displacement of [3H]CGP39653 from NMDA receptor in Wistar rat cerebral cortex at 10 uM by displacement binding assay; type: tissue-based
[6] = Ratio of drug level in NMRI mouse brain to plasma at 3 mg/kg, ip measured after 1 hr by HPLC-MS/MS analysis; type: ADME, organism-based; settings: read-out: BPR
[7] = biological target: T2, 5-hydroxytryptamine receptor 3A (Homo sapiens) (UniProt P46098); experiment: Displacement of [3H]GR65630 from human 5-HT3 receptor expressed in HEK293 cells at 10 uM by displacement binding assay; type: cell-based
T2 sequence (whole entry): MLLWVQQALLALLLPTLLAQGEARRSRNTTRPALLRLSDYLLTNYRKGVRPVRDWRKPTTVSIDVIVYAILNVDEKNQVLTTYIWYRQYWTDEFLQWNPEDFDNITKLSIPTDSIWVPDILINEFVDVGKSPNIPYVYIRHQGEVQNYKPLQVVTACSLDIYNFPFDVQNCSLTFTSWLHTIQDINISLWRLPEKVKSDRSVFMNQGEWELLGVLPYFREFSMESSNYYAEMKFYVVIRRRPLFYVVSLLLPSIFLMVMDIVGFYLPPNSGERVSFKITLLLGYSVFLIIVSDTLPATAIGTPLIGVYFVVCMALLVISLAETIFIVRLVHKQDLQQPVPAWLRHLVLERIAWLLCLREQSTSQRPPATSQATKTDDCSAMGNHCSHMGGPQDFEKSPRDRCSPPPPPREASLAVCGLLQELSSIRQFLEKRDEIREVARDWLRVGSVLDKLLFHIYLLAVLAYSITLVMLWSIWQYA

[8] = biological target: Voltage-gated inwardly rectifying potassium channel KCNH2 (Homo sapiens, UniProt Q12809); experiment: Inhibition of human ERG channel expressed in CHO cells measured after 7 to 10 mins at -80 mV holding potential by whole cell patch clamp assay; type: cell-based
[9] = biological target: GABA-A receptor; anion channel (Rattus norvegicus) (UniProt O09028+P15431+P18506+P18508+P19969+P20236+P23574+P23576+P28471+P28473+P30191+P62813+P63079+P63138+Q91ZM7+Q9ES14); experiment: Displacement of [3H]muscimol from GABAA receptor in Wistar rat brain without cerebellum at 10 uM by displacement binding assay; type: tissue-based
[10] = Apparent permeability across apical to basolateral side in vinblastine-treated human Caco-2 cells expressing P-glycoprotein at 10 uM incubated for 120 mins by HPLC analysis; type: ADME
[11] = Mutagenicity in Salmonella typhimurium TA100 in absence of rat liver S9 fraction by AMES test; type: toxicity; settings: salmonella enterica subsp. enterica serovar typhimurium
[12] = Mutagenicity in Salmonella typhimurium TA98 in absence of rat liver S9 fraction by AMES test; type: toxicity; settings: salmonella enterica subsp. enterica serovar typhimurium
[13] = biological target: Sigma non-opioid intracellular receptor 1 (Homo sapiens) (UniProt Q99720); experiment: Binding affinity to human recombinant sigma-1 receptor assessed as displacement of radioligand at 10 uM by displacement binding assay
[14] = biological target: GABA-A receptor; alpha-1/beta-3/gamma-2 (Homo sapiens) (UniProt P14867+P18507+P28472); experiment: Inhibition of human alpha1beta3gamma2 GABAA receptor expressed in HEK293 cells assessed as inhibition of GABA induced channel current response at 1 to 10 uM measured after 7 to 10 mins at -80 mV holding potential by whole-cell patch clamp assay; type: cell-based; settings: dose 1-10 µM, time 7-10 min
[15] = biological target: T1, GABA-A receptor; alpha-5/beta-3/gamma-2 (Homo sapiens); experiment: Activation of human alpha5beta3gamma2 GABAA receptor expressed in HEK293 cells assessed as enhancement of GABA induced channel current response at 1 to 10 uM measured after 7 to 10 mins at -80 mV holding potential by whole-cell patch clamp assay; type: cell-based; settings: dose 1-10 µM, time 7-10 min
[16] = Metabolic stability in NMRI mouse liver microsomes assessed as intrinsic clearance at 1 uM measured per mg protein upto 40 mins; type: ADME, Microsome; settings: read-out: CLH
[17] = Drug uptake in NMRI mouse brain at 10 mg/kg, ip measured after 1 hr by HPLC-MS/MS analysis; type: ADME, organism-based; settings: read-out: Ct
[18] = Plasma concentration in NMRI mouse at 1 mg/kg, ip measured after 1 hr by HPLC-MS/MS analysis; type: ADME, organism-based
Mus musculus = experiment: Cognitive enhancing effect in scopolamine-induced amnesia NMRI mouse model assessed as increase in recognition index at 1 to 10 mg/kg, ip administered 30 mins prior to scopolamine injection by Y-maze test; type: functional, organism-based; settings: dose 1-10 mg/kg
[19] = Ratio of drug level in NMRI mouse brain to plasma at 1 mg/kg, ip measured after 1 hr by HPLC-MS/MS analysis; type: ADME, organism-based; settings: read-out: BPR
[20] = Drug uptake in NMRI mouse brain at 3 mg/kg, ip measured after 1 hr by HPLC-MS/MS analysis; type: ADME, organism-based; settings: read-out: Ct
[21] = Plasma concentration in NMRI mouse at 10 mg/kg, ip measured after 1 hr by HPLC-MS/MS analysis; type: ADME, organism-based

Sigma non-opioid intracellular receptor 1 (Homo sapiens), sequence (Q99720 whole entry): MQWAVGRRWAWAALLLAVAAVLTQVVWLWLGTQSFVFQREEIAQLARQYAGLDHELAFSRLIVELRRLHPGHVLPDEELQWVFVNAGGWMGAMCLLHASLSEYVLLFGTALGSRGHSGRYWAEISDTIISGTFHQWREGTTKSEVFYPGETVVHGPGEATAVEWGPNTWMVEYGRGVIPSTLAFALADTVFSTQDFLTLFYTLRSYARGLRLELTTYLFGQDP
Voltage-gated inwardly rectifying potassium channel KCNH2, sequence (Q12809 whole entry): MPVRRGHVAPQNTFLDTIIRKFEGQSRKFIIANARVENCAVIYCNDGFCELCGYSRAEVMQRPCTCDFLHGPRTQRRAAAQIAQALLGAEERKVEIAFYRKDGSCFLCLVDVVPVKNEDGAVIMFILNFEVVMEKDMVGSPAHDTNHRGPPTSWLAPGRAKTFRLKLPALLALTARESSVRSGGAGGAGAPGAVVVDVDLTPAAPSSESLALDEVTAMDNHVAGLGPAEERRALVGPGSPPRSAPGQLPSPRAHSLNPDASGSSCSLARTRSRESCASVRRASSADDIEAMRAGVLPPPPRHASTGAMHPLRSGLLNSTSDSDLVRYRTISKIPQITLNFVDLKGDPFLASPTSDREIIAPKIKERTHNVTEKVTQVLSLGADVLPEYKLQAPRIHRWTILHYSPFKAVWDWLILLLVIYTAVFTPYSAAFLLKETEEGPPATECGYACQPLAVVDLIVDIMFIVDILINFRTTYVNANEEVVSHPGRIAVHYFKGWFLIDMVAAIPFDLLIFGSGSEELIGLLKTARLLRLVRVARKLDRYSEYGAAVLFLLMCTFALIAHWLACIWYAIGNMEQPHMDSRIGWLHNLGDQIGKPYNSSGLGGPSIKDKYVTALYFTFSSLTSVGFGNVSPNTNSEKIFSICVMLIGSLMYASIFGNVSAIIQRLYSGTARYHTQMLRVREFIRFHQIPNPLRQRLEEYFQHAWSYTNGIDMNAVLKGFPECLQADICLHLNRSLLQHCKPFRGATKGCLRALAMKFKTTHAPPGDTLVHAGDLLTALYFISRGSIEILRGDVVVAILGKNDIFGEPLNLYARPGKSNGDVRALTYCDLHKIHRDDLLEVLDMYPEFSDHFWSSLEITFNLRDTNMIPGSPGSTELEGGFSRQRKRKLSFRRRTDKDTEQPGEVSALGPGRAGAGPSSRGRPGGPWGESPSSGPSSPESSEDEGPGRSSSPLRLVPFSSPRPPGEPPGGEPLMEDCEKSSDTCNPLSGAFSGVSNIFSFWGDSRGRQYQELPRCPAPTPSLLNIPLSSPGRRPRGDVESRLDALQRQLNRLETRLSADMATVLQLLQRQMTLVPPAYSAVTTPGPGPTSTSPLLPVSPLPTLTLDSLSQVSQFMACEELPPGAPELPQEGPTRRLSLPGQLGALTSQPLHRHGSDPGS

Question: With Cc1ccc(CN2CCN(C(=O)C(=O)Nc3ccc4c(ccn4C)c3)CC2)cc1 as the molecule, how does the Kp at 1 h [1] read?
Answer: 1.67

Question: And the inhibition [2]?
Answer: < 7%

Question: And the Activity [3]?
Answer: Non-Toxic

Question: And the Kp at 1 h [4]?
Answer: 1.32

Question: And the inhibition [5]?
Answer: < 15%

Question: What about the Kp at 1 h [6] of the same molecule?
Answer: 1.68

Question: And the inhibition [7]?
Answer: < 15%

Question: And the IC50 [8]?
Answer: 7.5 µM

Question: What about the inhibition [9] of the same molecule?
Answer: < 15%

Question: What about the Papp A→B at 2 h, 10 µM [10] of the same molecule?
Answer: 307 nm/s

Question: What about the Activity [11] of the same molecule?
Answer: Non-Toxic

Question: And the Activity [12]?
Answer: Non-Toxic

Question: And the inhibition [13]?
Answer: 55%

Question: And the inhibition [14]?
Answer: < 7%

Question: What about the Activity [15] of the same molecule?
Answer: < 7%

Question: And the microsomal CLint at 1 µM [16]?
Answer: 55 µL/min/mg

Question: And the concentration at 1 h [17]?
Answer: 0.233 µM

Question: And the concentration at 1 h [18]?
Answer: 0.021 µM

Question: What about the Activity (Mus musculus) of the same molecule?
Answer: Active

Question: What about the Kp at 1 h [19] of the same molecule?
Answer: 1.88

Question: What about the concentration at 1 h [20] of the same molecule?
Answer: 0.064 µM

Question: And the concentration at 1 h [21]?
Answer: 0.142 µM
